target: T1, F508del (Homo sapiens, UniProt P13569, DEL508-508); test: Protocol 2: FRET membrane potential optical assay (VIPR), identification of correction compounds; type: cell-based; conditions: Table 3; compounds of Table 1 as modulators of CFTR activity; protocol not stated
T1 construct: expressed in transfected cells
Procedure, shortened: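 Correction of the F508del trafficking defect is scored as forskolin (10 μM)/genistein (20 μM)-stimulated Cl^− efflux in NIH3T3 mouse fibroblasts after a 16 hr, 37° C. compound exposure. Depolarization was followed optically using voltage-sensing FRET dyes.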

T1 sequence (P13569 with tags, fused parts or gaps DEL508-508): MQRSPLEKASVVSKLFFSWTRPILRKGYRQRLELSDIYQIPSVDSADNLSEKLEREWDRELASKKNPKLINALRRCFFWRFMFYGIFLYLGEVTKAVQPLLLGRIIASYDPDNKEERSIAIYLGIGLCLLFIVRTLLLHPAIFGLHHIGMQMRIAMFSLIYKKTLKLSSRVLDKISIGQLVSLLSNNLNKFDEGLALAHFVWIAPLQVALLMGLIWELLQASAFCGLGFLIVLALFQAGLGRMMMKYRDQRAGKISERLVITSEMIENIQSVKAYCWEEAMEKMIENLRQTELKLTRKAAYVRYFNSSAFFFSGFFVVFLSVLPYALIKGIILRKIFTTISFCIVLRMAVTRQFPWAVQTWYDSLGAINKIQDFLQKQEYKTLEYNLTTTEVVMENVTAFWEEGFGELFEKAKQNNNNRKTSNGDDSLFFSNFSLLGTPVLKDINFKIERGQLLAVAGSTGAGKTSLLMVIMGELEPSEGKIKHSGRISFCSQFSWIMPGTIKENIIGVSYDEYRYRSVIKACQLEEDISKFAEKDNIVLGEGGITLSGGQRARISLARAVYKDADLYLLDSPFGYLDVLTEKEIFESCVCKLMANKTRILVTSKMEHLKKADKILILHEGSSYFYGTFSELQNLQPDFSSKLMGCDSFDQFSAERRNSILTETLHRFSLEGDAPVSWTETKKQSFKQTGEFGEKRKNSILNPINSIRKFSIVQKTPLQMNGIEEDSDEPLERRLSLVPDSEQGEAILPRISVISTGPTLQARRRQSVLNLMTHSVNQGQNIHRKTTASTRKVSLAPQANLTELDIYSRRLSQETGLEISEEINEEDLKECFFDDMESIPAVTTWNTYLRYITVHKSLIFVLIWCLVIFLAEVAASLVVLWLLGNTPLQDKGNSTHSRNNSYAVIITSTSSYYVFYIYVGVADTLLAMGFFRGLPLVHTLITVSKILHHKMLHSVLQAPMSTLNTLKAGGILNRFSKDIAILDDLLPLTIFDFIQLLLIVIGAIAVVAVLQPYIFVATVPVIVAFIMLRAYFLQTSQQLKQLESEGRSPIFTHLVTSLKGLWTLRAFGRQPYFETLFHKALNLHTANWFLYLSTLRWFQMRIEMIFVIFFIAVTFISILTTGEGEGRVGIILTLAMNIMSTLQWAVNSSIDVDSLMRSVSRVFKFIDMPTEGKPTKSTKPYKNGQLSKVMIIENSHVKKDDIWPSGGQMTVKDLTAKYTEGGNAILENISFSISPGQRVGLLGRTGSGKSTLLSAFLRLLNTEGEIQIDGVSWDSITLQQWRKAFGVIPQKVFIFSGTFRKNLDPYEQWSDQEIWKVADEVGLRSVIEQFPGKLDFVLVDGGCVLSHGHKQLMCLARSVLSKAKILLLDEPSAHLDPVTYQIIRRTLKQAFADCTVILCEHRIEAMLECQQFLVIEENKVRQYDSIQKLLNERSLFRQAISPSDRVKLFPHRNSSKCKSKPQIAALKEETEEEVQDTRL

Structure (SMILES) | EC30
CC(C)(C)c1cc(C(=O)NS(=O)(=O)c2cccc(N)c2)n(Cc2c(Cl)cc(Cl)cc2Cl)n1 [Compound 303, N-(3-aminophenyl)sulfonyl-5-tert-butyl-2-[(2,4,6-trichlorophenyl)methyl]pyrazole-3-carboxamide] | +++ (“+++” means <3 uM)
Cc1ccc(C(F)(F)F)c(Cn2nc(C(C)(C)C)cc2C(=O)NS(=O)(=O)c2ccccc2)c1 [Compound 304, N-(benzenesulfonyl)-5-tert-butyl-2-[[5-methyl-2-(trifluoromethyl)phenyl]methyl]pyrazole-3-carboxamide] | +++ (“+++” means <3 uM)
Cc1cc(C)c(Oc2nc(C(C)(C)C)ccc2C(=O)NS(=O)(=O)c2cccc(=O)[nH]2)c(C)c1 [Compound 305, 6-tert-butyl-N-[(6-oxo-1H-pyridin-2-yl)sulfonyl]-2-(2,4,6-trimethylphenoxy)pyridine-3-carboxamide] | +++ (“+++” means <3 uM)
Cc1cc(C)c(Cn2c(C(=O)NS(=O)(=O)c3cccc(N)c3)cc3c(C#N)cccc32)c(C)c1 [Compound 306, N-(3-aminophenyl)sulfonyl-4-cyano-1-[(2,4,6-trimethylphenyl)methyl]indole-2-carboxamide] | +++ (“+++” means <3 uM)
CC(C)COc1cc(F)cc(-c2ccc(C(=O)NS(=O)(=O)c3ccc[nH]c3=O)c(N3[C@H](C)CC[C@@H]3C)n2)c1 [Compound 307, 2-(2,5-dimethylpyrrolidin-1-yl)-6-(3-fluoro-5-isobutoxy-phenyl)-N-[(2-oxo-1H-pyridin-3-yl)sulfonyl]pyridine-3-carboxamide] | +++ (“+++” means <3 uM)
CC(C)(C)c1ccc(C(=O)NS(=O)(=O)c2cccc(N)c2)c(-c2ccc3c(c2)CCC3)n1 [Compound 308, N-(3-aminophenyl)sulfonyl-6-tert-butyl-2-indan-5-yl-pyridine-3-carboxamide] | +++ (“+++” means <3 uM)
Cc1cc(C)c(CN2CCc3ccccc3C2C(=O)NS(=O)(=O)c2cccc(N)c2)c(C)c1 (stereo not drawn) [Compound 309, N-(3-aminophenyl)sulfonyl-2-[(2,4,6-trimethylphenyl)methyl]-3,4-dihydro-1H-isoquinoline-1-carboxamide] | +++ (“+++” means <3 uM)
Cc1cc(C)c(CN2Cc3ccccc3[C@@H]2C(=O)NS(=O)(=O)c2cccc(N)c2)c(C)c1 [Compound 310, (1R)—N-(3-aminophenyl)sulfonyl-2-[(2,4,6-trimethylphenyl)methyl]isoindoline-1-carboxamide] | +++ (“+++” means <3 uM)
Cc1cc(C)c(Oc2nc(C(C)(C)C)ccc2C(=O)NS(=O)(=O)c2cccc(N(C)C)c2)c(C)c1 [Compound 311, 6-tert-butyl-N-[3-(dimethylamino)phenyl]sulfonyl-2-(2,4,6-trimethylphenoxy)pyridine-3-carboxamide] | +++ (“+++” means <3 uM)
Cc1ccc(S(=O)(=O)NC(=O)c2cc(C(C)(C)C)nn2Cc2c(C)cccc2C)cc1N [Compound 312, N-(3-amino-4-methyl-phenyl)sulfonyl-5-tert-butyl-2-[(2,6-dimethylphenyl)methyl]pyrazole-3-carboxamide] | +++ (“+++” means <3 uM)
Cc1cc(C)c(Cc2ccc(C(C)(C)C)nc2C(=O)NS(=O)(=O)c2cccc(N)c2)c(C)c1 [Compound 313, N-(3-aminophenyl)sulfonyl-6-tert-butyl-3-[(2,4,6-trimethylphenyl)methyl]pyridine-2-carboxamide] | +++ (“+++” means <3 uM)
CC(C)c1ccc(-c2nc(C(C)(C)C)ccc2C(=O)NS(=O)(=O)c2cccc(N)c2)cc1 [Compound 314, N-(3-aminophenyl)sulfonyl-6-tert-butyl-2-(4-isopropylphenyl)pyridine-3-carboxamide] | +++ (“+++” means <3 uM)
Cc1cccc(C)c1Cn1nc(-c2cccc(C(F)F)c2)cc1C(=O)NS(=O)(=O)c1ccccc1 [Compound 315, N-(benzenesulfonyl)-5-[3-(difluoromethyl)phenyl]-2-[(2,6-dimethylphenyl)methyl]pyrazole-3-carboxamide] | +++ (“+++” means <3 uM)
Cc1cccc(C)c1Cn1nc(-c2ccc(C(F)(F)F)cc2)cc1C(=O)NS(=O)(=O)c1ccccc1 [Compound 316, N-(benzenesulfonyl)-2-[(2,6-dimethylphenyl)methyl]-5-[4-(trifluoromethyl)phenyl]pyrazole-3-carboxamide] | +++ (“+++” means <3 uM)
Cc1cc(C)c(Oc2nc(-c3cc(F)cc(OCC(C)C)c3)ccc2C(=O)NS(=O)(=O)c2cc[nH]n2)c(C)c1 [Compound 318, 6-(3-fluoro-5-isobutoxy-phenyl)-N-(1H-pyrazol-3-ylsulfonyl)-2-(2,4,6-trimethylphenoxy)pyridine-3-carboxamide] | +++ (“+++” means <3 uM)
Cc1cc(C)c(Oc2nc(-c3ccc(OCC(C)C)cc3)ccc2C(=O)NS(=O)(=O)c2cccc(N)n2)c(C)c1 [Compound 320, N-[(6-amino-2-pyridyl)sulfonyl]-6-(4-isobutoxyphenyl)-2-(2,4,6-trimethylphenoxy)pyridine-3-carboxamide] | +++ (“+++” means <3 uM)

More lines, now with the values ahead:

EC30 | Structure (SMILES)
+++ (“+++” means <3 uM) | Cc1cc(C)c(C)c(Cn2nc(C(C)(C)C)cc2C(=O)NS(=O)(=O)c2cccc(N)c2)c1C [Compound 317, N-(3-aminophenyl)sulfonyl-5-tert-butyl-2-[(2,3,5,6-tetramethylphenyl)methyl]pyrazole-3-carboxamide]
++ (“++” means between 3 uM and 10 uM) | Cc1cc(C)c(CN2Cc3ccccc3C2C(=O)NS(=O)(=O)c2cccc(=O)[nH]2)c(C)c1 (stereo not drawn) [Compound 319, N-[(6-oxo-1H-pyridin-2-yl)sulfonyl]-2-[(2,4,6-trimethylphenyl)methyl]isoindoline-1-carboxamide]
+++ (“+++” means <3 uM) | CC1CCCN(c2nc(-c3ccc(OC(C)C)nc3)ccc2C(=O)NS(=O)(=O)c2cccc(N)n2)C1 (stereo not drawn) [Compound 321, N-[(6-amino-2-pyridyl)sulfonyl]-6-(6-isopropoxy-3-pyridyl)-2-(3-methyl-1-piperidyl)pyridine-3-carboxamide]
+++ (“+++” means <3 uM) | Cc1cc(C)c(Oc2nc(C(C)(C)C)ccc2C(=O)NS(=O)(=O)c2ccccc2N)c(C)c1 [Compound 322, N-(2-aminophenyl)sulfonyl-6-tert-butyl-2-(2,4,6-trimethylphenoxy)pyridine-3-carboxamide]
+++ (“+++” means <3 uM) | Cc1cccc(C)c1Cn1nc(CCC(C)(C)C)cc1C(=O)NS(=O)(=O)c1cccc(N)c1 [Compound 323, N-(3-aminophenyl)sulfonyl-5-(3,3-dimethylbutyl)-2-[(2,6-dimethylphenyl)methyl]pyrazole-3-carboxamide]
++ (“++” means between 3 uM and 10 uM) | Cc1cc(C)c(Cc2nn(C(C)(C)C)cc2C(=O)NS(=O)(=O)c2cccc(N)c2)c(C)c1 [Compound 324, N-(3-aminophenyl) sulfonyl-1-tert-butyl-3-[(2,4,6-trimethylphenyl)methyl]pyrazole-4-carboxamide]
+++ (“+++” means <3 uM) | Cc1cc(C)c(Oc2nn(C(C)(C)C)cc2C(=O)NS(=O)(=O)c2cccc(N)c2)c(C)c1 [Compound 325, N-(3-aminophenyl)sulfonyl-1-tert-butyl-3-(2,4,6-trimethylphenoxy)pyrazole-4-carboxamide]
+++ (“+++” means <3 uM) | Cn1ccc2cccc(Oc3nc(C(C)(C)C)ccc3C(=O)NS(=O)(=O)c3ccccc3)c21 [Compound 326, N-(benzenesulfonyl)-6-tert-butyl-2-(1-methylindol-7-yl)oxy-pyridine-3-carboxamide]
+++ (“+++” means <3 uM) | COc1cccc(S(=O)(=O)NC(=O)c2ccc(C(C)(C)C)nc2-c2ccc(C)cc2)c1 [Compound 327, 6-tert-butyl-N-(3-methoxyphenyl)sulfonyl-2-(p-tolyl)pyridine-3-carboxamide]
+++ (“+++” means <3 uM) | CC(C)(C)c1cc(C(=O)NS(=O)(=O)c2ccccc2)n(Cc2cccc3ccccc23)n1 [Compound 328, N-(benzenesulfonyl)-5-tert-butyl-2-(1-naphthylmethyl)pyrazole-3-carboxamide]
+++ (“+++” means <3 uM) | Cc1cccc(C)c1Cn1nc(-c2ccc(N3CCCCC3)nc2)cc1C(=O)NS(=O)(=O)c1ccccc1 [Compound 329, N-(benzenesulfonyl)-2-[(2,6-dimethylphenyl)methyl]-5-[6-(1-piperidyl)-3-pyridyl]pyrazole-3-carboxamide]
+++ (“+++” means <3 uM) | Cc1cc(C)c(Oc2nc(C(C)(C)C)ccc2C(=O)NS(=O)(=O)c2cccnc2)c(C)c1 [Compound 330, 6-tert-butyl-N-(3-pyridylsulfonyl)-2-(2,4,6-trimethylphenoxy)pyridine-3-carboxamide]
+++ (“+++” means <3 uM) | Cc1cccc(C)c1Cn1c(C(=O)NS(=O)(=O)c2cccc(N)c2)cc2ccccc21 [Compound 331, N-(3-aminophenyl)sulfonyl-1-[(2,6-dimethylphenyl)methyl]indole-2-carboxamide]
+++ (“+++” means <3 uM) | CC(=O)c1cccc(S(=O)(=O)NC(=O)c2cc(C(C)(C)C)nn2Cc2c(C)cc(C)cc2C)c1 [Compound 332, N-(3-acetylphenyl)sulfonyl-5-tert-butyl-2-[(2,4,6-trimethylphenyl)methyl]pyrazole-3-carboxamide]
+++ (“+++” means <3 uM) | Cc1cccc(C)c1Cn1nc(-c2ccc(F)cc2)cc1C(=O)NS(=O)(=O)c1ccccc1 [Compound 333, N-(benzenesulfonyl)-2-[(2,6-dimethylphenyl)methyl]-5-(4-fluorophenyl)pyrazole-3-carboxamide]
++ (“++” means between 3 uM and 10 uM) | CC(C)(C)c1ccc(C(=O)NS(=O)(=O)c2cccc(N)n2)c(-c2ccccc2)n1 [Compound 334, N-[(6-amino-2-pyridyl)sulfonyl]-6-tert-butyl-2-phenyl-pyridine-3-carboxamide]
+++ (“+++” means <3 uM) | COc1cccc(S(=O)(=O)NC(=O)c2cc3ccccc3n2Cc2c(C)cc(C)cc2C)c1 [Compound 335, N-(3-methoxyphenyl)sulfonyl-1-[(2,4,6-trimethylphenyl)methyl]indole-2-carboxamide]

From patent US10758534B2 (Vertex Pharmaceuticals Incorporated, priority 2014, dated 2020)
